# How the values were obtained:
# Assay type in all cases: in vivo
# [1] = tested on: Cabbage Looper (Trichoplusia ni, TRIPNI); experiment: Bioassay on Cabbage Looper (CL), 128-well diet tray assay; details: 168 h, 50 μg/cm^2 on artificial diet, second instar larvae, 25° C., five to seven days, average of eight wells, read-out: CL % Control (or Mortality) rating
# Procedure: (§1) Certain molecules disclosed in this document were tested against BAW and CL using procedures described in the following examples. In the reporting of the results, the “BAW & CL Rating Table” was used (See Table Section).
# Bioassays on CL were conducted using a 128-well diet tray assay. one to five second instar CL larvae were placed in each well (3 mL) of the diet tray that had been previously filled with 1 mL of artificial diet to which 50 μg/cm^2 of the test molecule (dissolved in 50 μL of 90:10 acetone-water mixture) had been applied (to each of eight wells) and then allowed to dry. Trays were covered with a clear self-adhesive cover, vented to allow gas exchange, and held at 25° C., 14:10 light-dark for five to seven days. Percent mortality was recorded for the larvae in each well; activity in the eight wells was then averaged. The results are indicated in the table entitled “Table ABC: Biological Results” (See Table Section).
# [2] = tested on: Beet Armyworm (Spodoptera exigua, LAPHEG); experiment: Bioassay on Beet Armyworm (BAW), 128-well diet tray assay; details: 168 h, 50 μg/cm^2 on artificial diet, second instar larvae, 25° C., five to seven days, average of eight wells, read-out: BAW % Control (or Mortality) rating
# Procedure: as §1
# Bioassays on BAW were conducted using a 128-well diet tray assay. One to five second instar BAW larvae were placed in each well (3 mL) of the diet tray that had been previously filled with approximately 1.5 mL of artificial diet to which 50 μg/cm^2 of the test molecule (dissolved in 50 μL of 90:10 acetone-water mixture) had been applied (to each of eight wells) and then allowed to dry. Trays were covered with a clear self-adhesive cover, vented to allow gas exchange, and held at 25° C., 14:10 light-dark for five to seven days. Percent mortality was recorded for the larvae in each well; activity in the eight wells was then averaged. The results are indicated in the table entitled “Table ABC: Biological Results” (See Table Section).
# [3] = tested on: Yellow Fever Mosquito (Aedes aegypti, AEDSAE); details: about 1 day-old larvae, 96-well plate from 4000 ppm DMSO master, 3 days at room temperature
# Procedure: Certain molecules disclosed in this document were tested against YFM using procedures described in the following paragraph. In the reporting of the results, the “GPA & YFM Rating Table” was used (See Table Section).
# Master plates containing 400 μg of a molecule dissolved in 100 μL of dimethyl sulfoxide (DMSO) (equivalent to a 4000 ppm solution) are used. A master plate of assembled molecules contains 15 μL per well. To this plate, 135 μL of a 90:10 water/acetone mixture is added to each well. A robot is programmed to dispense 15 μL aspirations from the master plate into an empty 96-well shallow plate (“daughter” plate). There are 6 reps (“daughter” plates) created per master. The created “daughter” plates are then immediately infested with YFM larvae.
# The day before plates are to be treated, mosquito eggs are placed in Millipore water containing liver powder to begin hatching (4 g. into 400 mL). After the “daughter” plates are created using the robot, they are infested with 220 μL of the liver powder/larval mosquito mixture (about 1 day-old larvae). After plates are infested with mosquito larvae, a non-evaporative lid is used to cover the plate to reduce drying. Plates are held at room temperature for 3 days prior to grading. After 3 days, each well is observed and scored based on mortality. The results are indicated in the table entitled “Table ABC: Biological Results” (See Table Section).
Compound,mortality at 50 µg/cm2 [1],mortality at 50 µg/cm2 [2],YFM % Control (or Mortality) rating [3]
"O=C(NC1CC(F)(F)C1)c1cc(NC(=O)[C@H]2[C@H](c3ccc(C(F)(F)F)cc3)C2(Cl)Cl)ccc1Cl (relative stereo) [Molecule F22, trans-2-Chloro-5-(2,2-dichloro-3-(4-(trifluoromethyl)phenyl)cyclopropanecarboxamido)-N-(3,3-difluorocyclobutyl)benzamide]",50 to 100%,50 to 100%,A (80-100)
"CN(C(=O)c1cc(NC(=O)[C@H]2[C@H](c3ccc(Cl)c(Cl)c3)C2(Cl)Cl)ccc1Cl)C1CC(F)(F)C1 (relative stereo) [Molecule F33, trans-2-Chloro-5-(2,2-dichloro-3-(3,4-dichlorophenyl)cyclopropanecarboxamido)-N-(3,3-difluorocyclobutyl)-N-methylbenzamide]",50 to 100%,50 to 100%,A (80-100)
"N#CC1CCC(NC(=O)c2cc(NC(=O)[C@H]3[C@H](c4cc(Cl)cc(Cl)c4)C3(Cl)Cl)ccc2Cl)C1 (relative stereo) [Molecule F35, trans-2-Chloro-N-(3-cyanocyclopentyl)-5-(2,2-dichloro-3-(3,5-dichlorophenyl)cyclopropanecarboxamido)benzamide]",50 to 100%,50 to 100%,A (80-100)
"N#CC1CCC(NC(=O)c2cc(NC(=O)[C@H]3[C@H](c4ccc(Cl)c(Cl)c4)C3(Cl)Cl)ccc2Cl)C1 (relative stereo) [Molecule F36, trans-2-Chloro-N-(3-cyanocyclopentyl)-5-(2,2-dichloro-3-(3,4-dichlorophenyl)cyclopropanecarboxamido)benzamide]",50 to 100%,50 to 100%,B (More than 0-Less than 80)
"N#CC1CCC(NC(=O)c2cc(NC(=O)[C@H]3[C@H](c4cc(Cl)c(Cl)c(Cl)c4)C3(Cl)Cl)ccc2Cl)C1 (relative stereo) [Molecule F39, trans-2-Chloro-N-(3-cyanocyclopentyl)-5-(2,2-dichloro-3-(3,4,5-trichlorophenyl)cyclopropanecarboxamido)benzamide]",50 to 100%,50 to 100%,A (80-100)
"O=C(NC1CCC1)c1cc(NC(=O)[C@H]2[C@H](c3cc(Cl)cc(Cl)c3)C2(Cl)Cl)ccc1Cl (relative stereo) [Molecule F40, trans-2-Chloro-N-cyclobutyl-5-(2,2-dichloro-3-(3,5-dichlorophenyl)cyclopropanecarboxamido)benzamide]",50 to 100%,50 to 100%,A (80-100)
"CN(C(=O)c1cc(NC(=O)[C@H]2[C@H](c3cc(Cl)cc(Cl)c3)C2(Cl)Cl)ccc1Cl)C1(C#N)CC1 (relative stereo) [PF20, trans-2-Chloro-N-(1-cyanocyclopropyl)-5-(2,2-dichloro-3-(3,5-dichloro-phenyl)cyclopropane-1-carboxamido)-N-methylbenzamide]",50 to 100%,50 to 100%,
"O=C(NC1C[S+]([O-])C1)c1cc(NC(=O)C2C(c3cc(Cl)c(Cl)c(Cl)c3)C2(Cl)Cl)ccc1Cl (single isomer, unassigned) [Molecule F56, trans-2-chloro-5-(2,2-dichloro-3-(3,4,5-trichlorophenyl)cyclopropanecarboxamido)-N-(1-oxidothietan-3-yl)benzamide]",50 to 100%,50 to 100%,
"N#CC1(NC(=O)c2cc(NC(=O)[C@H]3[C@H](c4cc(Cl)cc(Cl)c4)C3(Cl)Cl)ccc2Cl)CC1 [Molecule F75, 2-Chloro-N-(1-cyanocyclopropyl)-5-((1R,3R)-2,2-dichloro-3-(3,5-dichloro-phenyl)cyclopropane-1-carboxamido)benzamide]",,,A (80-100)

# From patent US9795139B2, “Molecules having pesticidal utility, and intermediates, compositions, and processes, related thereto” (priority 2015, dated 2017)
